Reference: US11440822B2, “Methods and uses of dissolved organic material fractions for binding metal ions” (priority 2016, dated 2022)

Test system: Scenedesmus obliquus
Experiment: Toxicity of Cd to Scenedesmus obliquus cultures
Assay type: cell-based
Conditions: Cd(NO3)2
Procedure: Laboratory grown cultures of Scenedesmus obliquus were obtained from the Canadian Phycological Culture Center (CPCC) in Waterloo, Ontario. The cells were grown using a bold basal media (BBM) at standard light regimes (16:8 h light to dark) fixed light intensity of 90-100 μmol photons […] and fixed temperature of 21° C. constantly aerated in a growth chamber.
Four algal cultures were grown in the presence of varying levels of Cd: control (0 μL^−1 Cd); EC20 (19.5 μL^−1Cd); EC30 (46.4 μL^−1 Cd) and EC40 (78.8 μL^−1 Cd) starting at 1 million cells per mL for Replicate 1 and 2 million cells per mL for Replicate 2. The cells were harvested in early stationary phase for further analysis.

O=[N+]([O-])[O-].O=[N+]([O-])[O-].[Cd+2] [Cd, Cd(NO3)2]
toxicity of Cd, EC20: 19.5 μL^−1Cd | toxicity of Cd, EC30: 46.4 μL^−1 Cd | toxicity of Cd, EC40: 78.8 μL^−1 Cd
